Laboratory results published in PMC9154761, “Development of Praziquantel sulphonamide derivatives as antischistosomal drugs” (Journal of Enzyme Inhibition and Medicinal Chemistry, 2022).

Key:
TcCA = TcCA (Trypanosoma cruzi, UniProt Q4DKE0); format: biochemical; conditions: stopped flow CO2 hydrase assay; mean from three different assays
Experimental: (§1) An Applied Photophysics stopped-flow instrument was used to assay the CA catalysed CO2 hydration activity. […] The uncatalyzed rates were determined in the same manner and subtracted from the total observed rates. Stock solutions of the inhibitor (0.1 mM) were prepared in distilled–deionized water and dilutions up to 0.01 nM were done thereafter with the assay buffer. Inhibitor and enzyme solutions were preincubated together for 15 min at room temperature prior to the assay, to allow for the formation of the E–I complex. The inhibition constants were obtained by non-linear least-squares methods using PRISM 3 and the Cheng-Prusoff equation as reported earlier and represent the mean from at least three different determinations. All CA isoforms were recombinant proteins obtained in house, as reported earlier[14]^,[26–29].

SmCA = SmCA (Schistosoma mansoni, UniProt A0A3Q0KSG2); assay: biochemical; conditions: stopped flow CO2 hydrase assay; mean from three different assays; read-out: Ki SmCA
Sequence of SmCA (A0A3Q0KSG2 entry or part of it): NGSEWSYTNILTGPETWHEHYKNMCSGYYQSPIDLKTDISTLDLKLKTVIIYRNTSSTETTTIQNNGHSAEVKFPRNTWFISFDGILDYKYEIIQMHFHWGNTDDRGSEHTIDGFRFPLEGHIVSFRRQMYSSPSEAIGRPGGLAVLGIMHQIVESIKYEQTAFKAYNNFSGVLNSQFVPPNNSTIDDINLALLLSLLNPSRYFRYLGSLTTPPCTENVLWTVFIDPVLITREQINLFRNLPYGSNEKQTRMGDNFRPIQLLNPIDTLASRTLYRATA
Experimental: as §1

LdCA = LdCA (Leishmania donovani, UniProt A0A3S5H5R2); assay: biochemical; conditions: stopped flow CO2 hydrase assay; mean from three different assays; read-out: Ki LdCA
Sequence of LdCA (A0A3S5H5R2 entry or part of it): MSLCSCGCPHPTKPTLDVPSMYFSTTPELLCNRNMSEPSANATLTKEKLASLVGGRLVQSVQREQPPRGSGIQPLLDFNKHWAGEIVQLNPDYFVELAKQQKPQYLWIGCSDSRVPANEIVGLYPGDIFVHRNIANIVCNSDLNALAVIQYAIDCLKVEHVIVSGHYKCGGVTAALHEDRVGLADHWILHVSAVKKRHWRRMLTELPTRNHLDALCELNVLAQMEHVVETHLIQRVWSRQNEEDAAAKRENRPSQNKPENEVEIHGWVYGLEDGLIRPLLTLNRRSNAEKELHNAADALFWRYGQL
Experimental: as §1

hCA IV = molecular target: T1, hCA IV (Homo sapiens, UniProt P22748); assay: stopped flow CO2 hydrase assay, hCA IV; format: biochemical; conditions: mean from three different assays
T1 construct: made in house
T1 sequence (P22748 19-312): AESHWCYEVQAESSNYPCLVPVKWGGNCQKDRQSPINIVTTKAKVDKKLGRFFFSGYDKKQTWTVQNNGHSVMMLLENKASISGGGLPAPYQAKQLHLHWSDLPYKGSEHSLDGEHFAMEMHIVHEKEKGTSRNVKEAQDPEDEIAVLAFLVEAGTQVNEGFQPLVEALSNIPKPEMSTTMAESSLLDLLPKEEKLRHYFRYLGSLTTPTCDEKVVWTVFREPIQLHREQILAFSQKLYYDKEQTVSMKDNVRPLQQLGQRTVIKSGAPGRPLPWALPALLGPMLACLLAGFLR
Experimental: (§2) An Applied Photophysics stopped-flow instrument was used to assay the CA catalysed CO2 hydration activity. […] The CO2 concentrations ranged from 1.7 to 17 mM for the determination of the kinetic parameters and inhibition constants. […] For each inhibitor, at least six traces of the initial 5–10% of the reaction were used to determine the initial velocity. The uncatalyzed rates were determined in the same manner and subtracted from the total observed rates. Stock solutions of the inhibitor (0.1 mM) were prepared in distilled–deionized water and dilutions up to 0.01 nM were done thereafter with the assay buffer. Inhibitor and enzyme solutions were preincubated together for 15 min at room temperature prior to the assay, to allow for the formation of the E–I complex. The inhibition constants were obtained by non-linear least-squares methods using PRISM 3 and the Cheng-Prusoff equation as reported earlier and represent the mean from at least three different determinations. All CA isoforms were recombinant proteins obtained in house, as reported earlier[14]^,[26–29].

hCA IX = molecular target: T2, hCA IX (Homo sapiens, UniProt Q16790); assay: stopped flow CO2 hydrase assay, hCA IX; format: biochemical; conditions: mean from three different assays
T2 construct: made in house
Experimental: as §2

S. mansoni adult worms = assay: In vitro antischistosomal activity against adult S. mansoni worms; format: cell-based, Schistosoma mansoni; conditions: 10 μM, 72 h, viability via microscopy
Experimental: (§3) In vitro studies were carried out in accordance with Swiss national and cantonal regulations on animal welfare under the permission number 2070. The drug sensitivity assays with S. mansoni (adult and newly transformed schistosomules (NTS)) were carried out as described recently. Briefly, to obtain NTS, cercariae were collected from infected Biomphalaria glabrata snails and were mechanically transformed. Adult S. mansoni worms were collected by dissecting the mesenteric veins of infected mice at day 49 postinfection. Approximately 30–40 NTS were incubated with the respective test drug in 250 µL of M199 medium (Gibco, Waltham, MA) supplemented with 5% (v/v) foetal calf serum (FCS) (Bioconcept AG, Switzerland), 1% (v/v) penicillin/streptomycin solution (Sigma–Aldrich, Switzerland) and 1% (v/v) antibacterial/antifungal solution for up to 72 h at 37 °C and 5% CO2. The drug was tested at 10 µM in triplicate and repeated once. Three adult S. mansoni were incubated in a final volume of 2 mL rpmI 1640 supplemented with 5% (v/v) FCS and 1% (v/v) penicillin/streptomycin at 37 °C and 5% CO2 for 72 h at 10 µM. The experiment was conducted in duplicate. Worms were judged via microscopic readout 72 h after incubation; they were scored according to phenotypic reference points such as motility, morphology and granularity (scores from 0 to 3).

hCA II = molecular target: T3, hCA II (Homo sapiens, UniProt P00918); assay: stopped flow CO2 hydrase assay, hCA II; format: biochemical; conditions: mean from three different assays, read-out: Ki hCAII
T3 construct: made in house
Experimental: as §2

hCA I = molecular target: T4, hCA I (Homo sapiens, UniProt P00915); assay: stopped flow CO2 hydrase assay, hCA I; format: biochemical; conditions: mean from three different assays
T4 construct: made in house
T4 sequence (P00915 whole entry): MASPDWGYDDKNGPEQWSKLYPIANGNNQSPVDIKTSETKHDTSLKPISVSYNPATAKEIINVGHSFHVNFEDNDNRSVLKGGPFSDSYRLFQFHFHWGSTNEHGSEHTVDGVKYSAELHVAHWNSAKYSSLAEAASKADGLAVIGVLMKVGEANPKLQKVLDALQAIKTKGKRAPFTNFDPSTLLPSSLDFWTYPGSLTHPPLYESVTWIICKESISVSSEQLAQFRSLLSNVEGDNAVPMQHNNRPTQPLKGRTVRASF
Experimental: as §2

[1] = test system: newly transformed schistosomula (NTS); assay: In vitro antischistosomal activity against newly transformed schistosomula (NTS); format: cell-based, Schistosoma mansoni; conditions: 10 μM, after 72 h of exposure, viability via microscopy
Experimental: as §3

Sequence of TcCA (Q4DKE0 entry or part of it): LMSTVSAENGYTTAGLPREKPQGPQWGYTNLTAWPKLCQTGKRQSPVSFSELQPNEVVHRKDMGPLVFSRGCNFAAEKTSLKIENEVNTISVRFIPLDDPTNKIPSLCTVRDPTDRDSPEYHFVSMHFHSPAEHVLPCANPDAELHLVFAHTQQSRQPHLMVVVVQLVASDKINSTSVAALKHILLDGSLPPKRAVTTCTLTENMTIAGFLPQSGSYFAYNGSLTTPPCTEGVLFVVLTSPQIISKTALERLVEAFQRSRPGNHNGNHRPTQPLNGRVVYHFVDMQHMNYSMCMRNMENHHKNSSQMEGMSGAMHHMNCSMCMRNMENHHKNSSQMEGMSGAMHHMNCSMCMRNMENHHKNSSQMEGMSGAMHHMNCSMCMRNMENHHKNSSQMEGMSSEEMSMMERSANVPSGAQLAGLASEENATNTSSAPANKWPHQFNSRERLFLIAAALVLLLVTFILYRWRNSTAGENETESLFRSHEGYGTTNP

Row | Molecule | Ki (TcCA) | Ki (SmCA) | Ki (LdCA) | Ki (hCA IV) | Ki (hCA IX) | activity against adult S. mansoni worms (S. mansoni adult worms) | Ki (hCA II) | Ki (hCA I) | activity against NTS [1]
1 | 4–(3-(4–(4-Oxo-1,3,4,6,7,11b-hexahydro-2H-pyrazino[2,1-a]isoquinoline-2-carbonyl) phenyl)ureido)benzenesulfonamide [Compound 31c] | 589 ± 37 nM | 62.8 ± 4 nM | 401 ± 20.7 nM | 8700 ± 559 nM | 31.1 ± 2.9 nM | – | – | – | –
2 | NS(=O)(=O)c1ccc(CCC(=O)N2CC(=O)N3CCc4ccccc4C3C2)cc1 (stereo not shown) [Compound 4b, 4–(3-Oxo-3–(4-oxo-1,3,4,6,7,11b-hexahydro-2H-pyrazino[2,1-a]isoquinolin-2-yl)propyl) benzenesulfonamide] | – | 93.6 ± 7 nM | 417 ± 33.9 nM | 785 ± 58.3 nM | 139 ± 8 nM | 20.9% | 17.5 ± 1 nM | 67.7 ± 5.1 nM | –
3 | NS(=O)(=O)c1ccc(NC(=O)N2CC(=O)N3CCc4ccccc4C3C2)cc1 (stereo not shown) [Compound 34a, 4-Oxo-N-(4-sulfamoylphenyl)-1,3,4,6,7,11b-hexahydro-2H-pyrazino[2,1-a]isoquinoline-2-carboxamide] | – | 59.6 ± 4.3 nM | 253 ± 19.4 nM | 4410 ± 371 nM | 24.7 ± 1.44 nM | 30.6% | 8.4 ± 0.8 nM | 70.4 ± 5.7 nM | over 30%
4 | NS(=O)(=O)c1ccc(CCNC(=O)N2CC(=O)N3CCc4ccccc4C3C2)cc1 (stereo not shown) [Compound 34c, 4-Oxo-N-(4-sulfamoylphenethyl)-1,3,4,6,7,11b-hexahydro-2H-pyrazino[2,1-a]isoquinoline-2-carboxamide] | – | 5.6 ± 0.5 nM | 362 ± 27.3 nM | 4180 ± 442 nM | 102 ± 5.9 nM | – | 5.8 ± 0.3 nM | 20.5 ± 2 nM | over 30%
5 | 3–(3-(3–(4-Oxo-1,3,4,6,7,11b-hexahydro-2H-pyrazino[2,1-a]isoquinoline-2-carbonyl) phenyl)ureido)benzenesulfonamide [Compound 31b] | 309 ± 33.4 nM | 2490 ± 144 nM | 323 ± 16.7 nM | 451 ± 24.3 nM | 31.2 ± 1.6 nM | – | – | – | –
6 | NS(=O)(=O)c1cccc(NC(=O)N2CC(=O)N3CCc4ccccc4C3C2)c1 (stereo not shown) [Compound 34b, 4-Oxo-N-(3-sulfamoylphenyl)-1,3,4,6,7,11b-hexahydro-2H-pyrazino[2,1-a]isoquinoline-2-carboxamide] | – | 7200 ± 661 nM | 347 ± 34.3 nM | 517 ± 52.4 nM | 91.9 ± 8.8 nM | – | 45.6 ± 3 nM | 409 ± 23.3 nM | –
7 | 3–(3-(4–(4-Oxo-1,3,4,6,7,11b-hexahydro-2H-pyrazino[2,1-a]isoquinoline-2-carbonyl) phenyl)ureido)benzenesulfonamide [Compound 31d] | 393 ± 24.7 nM | 764 ± 68.3 nM | 82.8 ± 5.5 nM | 320 ± 32.7 nM | 138 ± 7.8 nM | – | – | – | –
8 | NS(=O)(=O)c1ccc(CNC(=O)Nc2ccc(C(=O)N3CC(=O)N4CCc5ccccc5C4C3)cc2)cc1 (stereo not shown) [Compound 32, 4-((3–(4-(4-Oxo-1,3,4,6,7,11b-hexahydro-2H-pyrazino[2,1-a]isoquinoline-2-carbonyl)phenyl)ureido)methyl)benzenesulfonamide] | – | 6350 ± 472 nM | 401 ± 34.8 nM | 665 ± 47.3 nM | 112 ± 11.3 nM | – | 26.5 ± 2.4 nM | 80.7 ± 4.8 nM | –
9 | 4–(3-(3–(4-Oxo-1,3,4,6,7,11b-hexahydro-2H-pyrazino[2,1-a]isoquinoline-2-carbonyl) phenyl)ureido)benzenesulfonamide [Compound 31a] | 1650 ± 129 nM | 8.8 ± 0.8 nM | 248 ± 15.9 nM | 180 ± 19.5 nM | 280 ± 15.4 nM | – | – | – | –
10 | NS(=O)(=O)c1ccc(NC(=O)NCc2ccc(C(=O)N3CC(=O)N4CCc5ccccc5C4C3)cc2)cc1 (stereo not shown) [Compound 28a, 4–(3-(4–(4-Oxo-1,3,4,6,7,11b-hexahydro-2H-pyrazino[2,1-a]isoquinoline-2-carbonyl)benzyl)ureido)benzenesulfonamide] | – | 614 ± 50.6 nM | 340 ± 33.9 nM | 548 ± 29.6 nM | 31.8 ± 1.8 nM | – | 8.2 ± 0.7 nM | 74.4 ± 3.9 nM | over 30%
11 | NS(=O)(=O)c1ccc(CCNC(=O)Nc2ccc(C(=O)N3CC(=O)N4CCc5ccccc5C4C3)cn2)cc1 (stereo not shown) [Compound 33, 4–(2-(3–(5-(4-Oxo-1,3,4,6,7,11b-hexahydro-2H-pyrazino[2,1-a]isoquinoline-2-carbonyl)pyridin-2-yl)ureido)ethyl)benzenesulfonamide] | – | 581 ± 32.5 nM | 87.5 ± 4.9 nM | 6810 ± 379 nM | 90.9 ± 9.6 nM | – | 49.2 ± 3.5 nM | 128 ± 11.9 nM | –
12 | NS(=O)(=O)c1ccc(CCNC(=S)N2CC(=O)N3CCc4ccccc4C3C2)cc1 (stereo not shown) [Compound 35c, 4-Oxo-N-(4-sulfamoylphenethyl)-1,3,4,6,7,11b-hexahydro-2H-pyrazino[2,1-a]isoquinoline-2-carbothioamide] | – | 5 ± 0.5 nM | 485 ± 46 nM | 8270 ± 719 nM | 97.1 ± 7.9 nM | – | 7.6 ± 0.4 nM | 64 ± 5.4 nM | –
